Patent US10710978B2, “STK4 inhibitors for treatment of hematologic malignancies” (Dana-Farber Cancer Institute, Inc., priority 2015, dated 2020)
Where two headings read alike, the source gives them in different places.

Legend:
Assay in all cases: KiNativ assay
Assay type in all cases: binding
[1] = target: MSK1 domain1 (Homo sapiens (Human), UniProt O75582); conditions: H929 live cell
Method: (§1) Biochemical IC50s of the compounds of the present disclosure against various kinases were measured in a KiNativ assay. Compounds were screened in duplicate at 10 μM in H929 live cell. IC50 was measured via Mass spectroscopy (MS).

[2] = target: PRPK (Homo sapiens (Human), UniProt Q96S44); conditions: H929 live cell
Method: as §1

[3] = target: NEK9 (Homo sapiens (Human), UniProt Q8TD19); conditions: H929 live cell
Method: as §1

[4] = target: LYN (Homo sapiens (Human), UniProt P07948); conditions: H929 live cell
Method: as §1

[5] = target: PIP4K2C (Homo sapiens (Human), UniProt Q8TBX8); conditions: H929 live cell
Method: as §1

[6] = target: CSK (Homo sapiens (Human), UniProt P41240); conditions: H929 live cell
Method: as §1

[7] = target: PLK1 (Homo sapiens (Human), UniProt P53350); conditions: H929 live cell
PLK1, sequence (P53350 whole entry): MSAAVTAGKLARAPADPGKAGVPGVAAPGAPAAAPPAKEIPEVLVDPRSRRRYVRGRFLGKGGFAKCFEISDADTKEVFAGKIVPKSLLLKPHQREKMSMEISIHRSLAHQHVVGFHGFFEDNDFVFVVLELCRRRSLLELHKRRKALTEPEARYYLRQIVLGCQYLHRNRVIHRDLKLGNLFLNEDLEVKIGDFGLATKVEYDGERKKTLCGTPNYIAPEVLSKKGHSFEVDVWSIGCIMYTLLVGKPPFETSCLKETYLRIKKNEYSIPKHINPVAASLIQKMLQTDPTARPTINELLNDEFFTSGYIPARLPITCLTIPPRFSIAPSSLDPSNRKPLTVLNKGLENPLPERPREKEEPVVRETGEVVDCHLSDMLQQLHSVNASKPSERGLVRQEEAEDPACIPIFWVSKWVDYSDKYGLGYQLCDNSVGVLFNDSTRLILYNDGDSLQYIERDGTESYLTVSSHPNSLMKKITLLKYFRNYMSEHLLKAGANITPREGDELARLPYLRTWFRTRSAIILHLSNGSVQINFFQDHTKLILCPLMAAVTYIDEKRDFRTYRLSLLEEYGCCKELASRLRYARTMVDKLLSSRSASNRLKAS
Method: as §1

[8] = system: MAP2K1, MAP2K2; conditions: 10 μM, H929 live cell
Method: as §1

[9] = system: MARK2, MARK3; conditions: H929 live cell
Method: as §1

[10] = target: PIK3CB (Homo sapiens (Human), UniProt P42338); conditions: H929 live cell
Method: as §1

[11] = target: TBK1 (Homo sapiens (Human), UniProt Q9UHD2); conditions: H929 live cell
Method: as §1

[12] = target: AurA (Homo sapiens (Human), UniProt O14965); conditions: H929 live cell
AurA, sequence (O14965 whole entry): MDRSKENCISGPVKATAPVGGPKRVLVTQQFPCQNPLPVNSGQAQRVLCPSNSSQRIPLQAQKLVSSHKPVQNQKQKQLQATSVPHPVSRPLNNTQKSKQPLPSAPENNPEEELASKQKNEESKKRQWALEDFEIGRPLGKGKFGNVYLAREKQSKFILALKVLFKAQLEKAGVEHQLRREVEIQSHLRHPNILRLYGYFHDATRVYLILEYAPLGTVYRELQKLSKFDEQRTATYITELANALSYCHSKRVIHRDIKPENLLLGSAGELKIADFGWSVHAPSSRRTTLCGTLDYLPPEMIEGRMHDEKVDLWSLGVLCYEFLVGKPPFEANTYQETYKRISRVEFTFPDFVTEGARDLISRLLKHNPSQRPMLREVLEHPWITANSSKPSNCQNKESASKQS
Method: as §1

[13] = target: ATR (Homo sapiens (Human), UniProt Q13535); conditions: H929 live cell
Method: as §1

[14] = system: PITSLRE; conditions: H929 live cell
Method: as §1

[15] = target: MAP3K1 (Homo sapiens (Human), UniProt Q13233); conditions: H929 live cell
Method: as §1

[16] = target: OSR1 (Homo sapiens (Human), UniProt O95747); conditions: H929 live cell
OSR1, sequence (O95747 whole entry): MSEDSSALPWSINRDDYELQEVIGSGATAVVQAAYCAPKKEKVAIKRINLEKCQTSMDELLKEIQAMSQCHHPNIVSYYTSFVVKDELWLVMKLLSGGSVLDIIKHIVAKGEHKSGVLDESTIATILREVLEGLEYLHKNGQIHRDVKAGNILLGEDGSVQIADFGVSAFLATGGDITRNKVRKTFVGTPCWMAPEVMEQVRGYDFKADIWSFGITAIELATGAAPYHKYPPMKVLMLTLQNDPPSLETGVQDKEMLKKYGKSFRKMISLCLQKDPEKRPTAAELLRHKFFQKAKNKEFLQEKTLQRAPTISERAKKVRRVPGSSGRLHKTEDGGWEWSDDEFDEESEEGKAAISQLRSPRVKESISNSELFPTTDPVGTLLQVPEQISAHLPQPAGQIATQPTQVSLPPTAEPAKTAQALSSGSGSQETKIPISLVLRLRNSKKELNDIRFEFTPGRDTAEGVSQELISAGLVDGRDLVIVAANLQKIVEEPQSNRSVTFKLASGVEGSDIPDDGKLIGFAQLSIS
Method: as §1

[17] = system: AMPKa1, AMPKa2; conditions: H929 live cell
Method: as §1

[18] = target: CHK1 (Homo sapiens (Human), UniProt O14757); conditions: H929 live cell
Method: as §1

[19] = target: LOK (Homo sapiens (Human), UniProt O94804); conditions: H929 live cell
Method: as §1

[20] = target: BARK1 (Homo sapiens (Human), UniProt P25098); conditions: H929 live cell
BARK1, sequence (P25098 whole entry): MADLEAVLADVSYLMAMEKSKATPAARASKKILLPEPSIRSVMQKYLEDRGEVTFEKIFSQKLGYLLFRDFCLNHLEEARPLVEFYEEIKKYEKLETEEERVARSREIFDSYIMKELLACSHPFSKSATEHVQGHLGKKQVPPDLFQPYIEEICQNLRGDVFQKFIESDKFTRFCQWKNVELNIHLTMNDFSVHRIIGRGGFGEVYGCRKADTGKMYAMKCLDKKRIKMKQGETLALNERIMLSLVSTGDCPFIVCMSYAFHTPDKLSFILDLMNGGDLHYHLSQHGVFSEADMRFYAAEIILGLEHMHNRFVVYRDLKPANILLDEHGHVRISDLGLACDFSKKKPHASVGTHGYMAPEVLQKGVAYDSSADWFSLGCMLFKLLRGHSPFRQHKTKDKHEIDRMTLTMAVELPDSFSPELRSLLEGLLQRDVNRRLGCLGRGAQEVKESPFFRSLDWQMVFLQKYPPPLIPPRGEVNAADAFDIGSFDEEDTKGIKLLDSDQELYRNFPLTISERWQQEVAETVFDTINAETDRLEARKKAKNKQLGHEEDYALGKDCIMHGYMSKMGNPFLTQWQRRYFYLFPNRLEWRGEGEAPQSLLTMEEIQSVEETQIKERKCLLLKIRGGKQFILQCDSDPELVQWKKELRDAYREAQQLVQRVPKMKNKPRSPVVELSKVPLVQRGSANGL
Method: as §1

[21] = target: GCK (Homo sapiens (Human), UniProt Q12851); conditions: H929 live cell
GCK, sequence (Q12851 whole entry): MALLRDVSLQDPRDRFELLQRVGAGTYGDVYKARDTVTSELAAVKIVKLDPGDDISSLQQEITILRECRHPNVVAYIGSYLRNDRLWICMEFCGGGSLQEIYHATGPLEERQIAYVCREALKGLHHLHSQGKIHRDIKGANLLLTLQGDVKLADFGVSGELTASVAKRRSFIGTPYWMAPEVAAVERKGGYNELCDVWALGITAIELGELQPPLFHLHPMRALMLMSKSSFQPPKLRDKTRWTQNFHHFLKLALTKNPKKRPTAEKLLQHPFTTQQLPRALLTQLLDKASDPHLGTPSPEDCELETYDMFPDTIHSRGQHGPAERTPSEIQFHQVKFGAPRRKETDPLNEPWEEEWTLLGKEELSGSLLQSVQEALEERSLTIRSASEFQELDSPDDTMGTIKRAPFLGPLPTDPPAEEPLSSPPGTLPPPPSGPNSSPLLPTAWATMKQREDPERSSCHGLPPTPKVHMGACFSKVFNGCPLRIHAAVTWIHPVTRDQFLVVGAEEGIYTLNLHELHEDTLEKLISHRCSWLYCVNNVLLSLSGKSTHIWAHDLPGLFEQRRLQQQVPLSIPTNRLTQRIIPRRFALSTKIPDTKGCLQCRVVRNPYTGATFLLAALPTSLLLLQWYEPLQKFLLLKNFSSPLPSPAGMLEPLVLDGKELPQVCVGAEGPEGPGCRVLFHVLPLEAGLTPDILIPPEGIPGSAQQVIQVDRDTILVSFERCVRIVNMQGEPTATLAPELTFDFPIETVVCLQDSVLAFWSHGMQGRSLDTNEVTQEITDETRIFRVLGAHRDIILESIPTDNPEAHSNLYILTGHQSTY
Method: as §1

[22] = target: ZAK (Homo sapiens (Human), UniProt Q9NYL2); conditions: H929 live cell
Method: as §1

[23] = target: MAP3K4 (Homo sapiens (Human), UniProt Q9Y6R4); conditions: H929 live cell
Method: as §1

[24] = target: STLK6 (Homo sapiens (Human), UniProt Q9C0K7); conditions: H929 live cell
STLK6, sequence (Q9C0K7 whole entry): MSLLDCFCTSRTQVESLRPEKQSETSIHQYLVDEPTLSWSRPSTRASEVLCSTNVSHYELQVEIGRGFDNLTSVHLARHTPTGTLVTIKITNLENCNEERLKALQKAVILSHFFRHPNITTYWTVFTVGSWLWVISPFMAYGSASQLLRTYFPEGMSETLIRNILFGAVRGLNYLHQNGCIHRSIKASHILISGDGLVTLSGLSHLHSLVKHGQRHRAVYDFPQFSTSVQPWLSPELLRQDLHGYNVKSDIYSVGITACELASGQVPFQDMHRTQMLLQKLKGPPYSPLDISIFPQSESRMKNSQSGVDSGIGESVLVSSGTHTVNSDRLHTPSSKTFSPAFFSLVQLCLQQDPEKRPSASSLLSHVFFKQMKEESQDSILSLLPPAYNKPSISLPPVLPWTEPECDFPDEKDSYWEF
Method: as §1

[25] = target: FER (Homo sapiens (Human), UniProt P16591); conditions: H929 live cell
Method: as §1

[26] = target: NuaK2 (Homo sapiens (Human), UniProt Q9H093); conditions: H929 live cell
Method: as §1

[27] = target: p70S6Kb (Homo sapiens (Human), UniProt Q9UBS0); conditions: H929 live cell
p70S6Kb, sequence (Q9UBS0 whole entry): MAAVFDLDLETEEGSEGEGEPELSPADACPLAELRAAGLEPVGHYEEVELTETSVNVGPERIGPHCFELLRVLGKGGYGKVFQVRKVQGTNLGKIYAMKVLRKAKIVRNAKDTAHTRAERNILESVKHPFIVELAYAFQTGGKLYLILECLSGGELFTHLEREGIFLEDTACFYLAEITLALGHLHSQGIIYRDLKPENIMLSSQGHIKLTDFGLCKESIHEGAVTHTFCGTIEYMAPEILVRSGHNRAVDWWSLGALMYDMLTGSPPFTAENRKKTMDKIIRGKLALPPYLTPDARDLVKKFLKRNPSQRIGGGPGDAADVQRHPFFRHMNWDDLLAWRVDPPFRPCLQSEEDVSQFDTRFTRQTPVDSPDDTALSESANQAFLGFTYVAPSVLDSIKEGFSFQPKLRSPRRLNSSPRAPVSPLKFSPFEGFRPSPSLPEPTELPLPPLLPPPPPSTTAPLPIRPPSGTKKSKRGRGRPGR
Method: as §1

[28] = target: LATS1 (Homo sapiens (Human), UniProt O95835); conditions: H929 live cell
Method: as §1

[29] = target: NDR2 (Homo sapiens (Human), UniProt Q9Y2H1); conditions: H929 live cell
Method: as §1

[30] = target: NEK7 (Homo sapiens (Human), UniProt Q8TDX7); conditions: H929 live cell
Method: as §1

[31] = target: AurB (Homo sapiens (Human), UniProt Q96GD4); conditions: H929 live cell
Method: as §1

[32] = target: PAN3 (Homo sapiens (Human), UniProt Q58A45); conditions: H929 live cell
PAN3, sequence (Q58A45 whole entry): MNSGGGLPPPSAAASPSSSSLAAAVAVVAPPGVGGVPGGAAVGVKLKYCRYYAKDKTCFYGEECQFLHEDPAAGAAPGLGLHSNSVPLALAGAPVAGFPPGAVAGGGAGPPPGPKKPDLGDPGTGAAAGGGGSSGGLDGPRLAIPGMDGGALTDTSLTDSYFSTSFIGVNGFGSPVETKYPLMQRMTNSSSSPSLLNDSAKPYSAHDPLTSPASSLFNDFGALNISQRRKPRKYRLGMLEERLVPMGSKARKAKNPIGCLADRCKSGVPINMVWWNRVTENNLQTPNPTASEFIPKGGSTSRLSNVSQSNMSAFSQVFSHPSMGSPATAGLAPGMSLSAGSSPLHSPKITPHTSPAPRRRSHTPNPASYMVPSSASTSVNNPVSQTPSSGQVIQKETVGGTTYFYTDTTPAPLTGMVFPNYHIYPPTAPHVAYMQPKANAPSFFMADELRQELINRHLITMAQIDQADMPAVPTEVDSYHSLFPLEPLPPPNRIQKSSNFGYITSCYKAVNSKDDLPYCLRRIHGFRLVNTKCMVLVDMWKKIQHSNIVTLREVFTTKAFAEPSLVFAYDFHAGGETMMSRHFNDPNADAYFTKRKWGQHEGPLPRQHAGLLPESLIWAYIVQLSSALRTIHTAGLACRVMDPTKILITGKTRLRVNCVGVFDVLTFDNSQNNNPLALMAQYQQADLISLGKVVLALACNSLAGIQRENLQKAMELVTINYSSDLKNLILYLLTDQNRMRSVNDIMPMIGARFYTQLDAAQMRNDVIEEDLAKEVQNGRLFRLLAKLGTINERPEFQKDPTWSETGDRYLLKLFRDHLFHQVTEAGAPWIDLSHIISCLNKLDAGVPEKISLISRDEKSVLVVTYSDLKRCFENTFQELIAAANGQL
Method: as §1

[33] = system: CDK11, CDK8; conditions: H929 live cell
Method: as §1

[34] = target: MAP2K4 (Homo sapiens (Human), UniProt P45985); conditions: H929 live cell
Method: as §1

Nc1ncc(-c2cccc3ncsc23)cc1-c1ccc2c(c1)CCNC2=O [Compound I-13, 6-(2-amino-5-(benzo[d]thiazol-7-yl)pyridin-3-yl)-3,4-dihydroisoquinolin-1(2H)-one]
inhibition at 10 µM ([1]; read-out: % inhibition (range)): 0%
inhibition at 10 µM ([1]; read-out: inhibition (10 μM)): 9.5%
inhibition at 10 µM ([2]; read-out: % inhibition (range)): 0%
inhibition at 10 µM ([2]; read-out: inhibition (10 μM)): -6.4%
inhibition at 10 µM ([3]; read-out: % inhibition (range)): 0%
inhibition at 10 µM ([3]; read-out: inhibition (10 μM)): -10%
inhibition at 10 µM ([4]; read-out: % inhibition (range)): 0%
inhibition at 10 µM ([4]; read-out: inhibition (10 μM)): -41.4%
inhibition at 10 µM ([5]; read-out: % inhibition (range)): 35 to 50%
inhibition at 10 µM ([5]; read-out: inhibition (10 μM)): 42%
inhibition at 10 µM ([6]; read-out: % inhibition (range)): 0%
inhibition at 10 µM ([6]; read-out: inhibition (10 μM)): 4.7%
inhibition at 10 µM ([7]; read-out: % inhibition (range)): 0%
inhibition at 10 µM ([7]; read-out: inhibition (10 μM)): 6.6%
% inhibition (range) [8]: 0.0%
% inhibition (range) ([9]; 10 μM): 0.0%
inhibition (10 μM) [9]: 14.8%
inhibition at 10 µM ([10]; read-out: % inhibition (range)): 0%
inhibition at 10 µM ([10]; read-out: inhibition (10 μM)): 23.1%
inhibition at 10 µM ([11]; read-out: % inhibition (range)): 0%
inhibition at 10 µM ([11]; read-out: inhibition (10 μM)): -23.1%
inhibition (10 μM) [12]: 14.7%
inhibition at 10 µM ([12]; read-out: % inhibition (range)): 0%
inhibition at 10 µM ([12]; read-out: inhibition (10 μM)): 17.4%
inhibition at 10 µM ([13]; read-out: % inhibition (range)): 0%
inhibition at 10 µM ([13]; read-out: inhibition (10 μM)): -16.1%
% inhibition (range) ([14]; 10 μM): 0.0%
inhibition (10 μM) [14]: −3.6%
inhibition at 10 µM ([15]; read-out: % inhibition (range)): > 90%
inhibition at 10 µM ([15]; read-out: inhibition (10 μM)): 90.2%
inhibition at 10 µM ([16]; read-out: % inhibition (range)): 0%
inhibition at 10 µM ([16]; read-out: inhibition (10 μM)): 1.4%
% inhibition (range) ([17]; 10 μM): 0.0%
inhibition (10 μM) [17]: 1.8%
inhibition at 10 µM ([18]; read-out: % inhibition (range)): 0%
inhibition at 10 µM ([18]; read-out: inhibition (10 μM)): -8.9%
inhibition at 10 µM ([19]; read-out: % inhibition (range)): 50 to 75%
inhibition at 10 µM ([19]; read-out: inhibition (10 μM)): 61.5%
inhibition at 10 µM ([20]; read-out: % inhibition (range)): 0%
inhibition at 10 µM ([20]; read-out: inhibition (10 μM)): 21.8%
inhibition at 10 µM ([21]; read-out: % inhibition (range)): 75 to 90%
inhibition at 10 µM ([21]; read-out: inhibition (10 μM)): 77.3%
inhibition at 10 µM ([22]; read-out: % inhibition (range)): 35 to 50%
inhibition at 10 µM ([22]; read-out: inhibition (10 μM)): 44.9%
inhibition at 10 µM ([23]; read-out: % inhibition (range)): 0%
inhibition at 10 µM ([23]; read-out: inhibition (10 μM)): 3%
inhibition at 10 µM ([24]; read-out: % inhibition (range)): 0%
inhibition at 10 µM ([24]; read-out: inhibition (10 μM)): -10.8%
inhibition at 10 µM ([25]; read-out: % inhibition (range)): 0%
inhibition at 10 µM ([25]; read-out: inhibition (10 μM)): 4.2%
inhibition at 10 µM ([26]; read-out: % inhibition (range)): 50 to 75%
inhibition at 10 µM ([26]; read-out: inhibition (10 μM)): 53.9%
inhibition at 10 µM ([27]; read-out: % inhibition (range)): 0%
inhibition at 10 µM ([27]; read-out: inhibition (10 μM)): -17.4%
inhibition at 10 µM ([28]; read-out: % inhibition (range)): 0%
inhibition at 10 µM ([28]; read-out: inhibition (10 μM)): 14.7%
inhibition at 10 µM ([29]; read-out: % inhibition (range)): 0%
inhibition at 10 µM ([29]; read-out: inhibition (10 μM)): 4%
inhibition at 10 µM ([30]; read-out: % inhibition (range)): 0%
inhibition at 10 µM ([30]; read-out: inhibition (10 μM)): -20.2%
inhibition at 10 µM ([31]; read-out: % inhibition (range)): 0%
inhibition at 10 µM ([31]; read-out: inhibition (10 μM)): 20.7%
inhibition at 10 µM ([32]; read-out: % inhibition (range)): 0%
inhibition at 10 µM ([32]; read-out: inhibition (10 μM)): -4%
% inhibition (range) ([33]; 10 μM): 50-75%
inhibition (10 μM) [33]: 59.3%
inhibition at 10 µM ([34]; read-out: % inhibition (range)): 35 to 50%
inhibition at 10 µM ([34]; read-out: inhibition (10 μM)): 48.2%
